# BindingDB's records for doi:10.7270/Q2WS8WDS (n/a, 1995)
# Biological target: T1, Protein kinase C zeta type (Rattus norvegicus, UniProt P09217)
# T1 sequence (P09217 whole entry): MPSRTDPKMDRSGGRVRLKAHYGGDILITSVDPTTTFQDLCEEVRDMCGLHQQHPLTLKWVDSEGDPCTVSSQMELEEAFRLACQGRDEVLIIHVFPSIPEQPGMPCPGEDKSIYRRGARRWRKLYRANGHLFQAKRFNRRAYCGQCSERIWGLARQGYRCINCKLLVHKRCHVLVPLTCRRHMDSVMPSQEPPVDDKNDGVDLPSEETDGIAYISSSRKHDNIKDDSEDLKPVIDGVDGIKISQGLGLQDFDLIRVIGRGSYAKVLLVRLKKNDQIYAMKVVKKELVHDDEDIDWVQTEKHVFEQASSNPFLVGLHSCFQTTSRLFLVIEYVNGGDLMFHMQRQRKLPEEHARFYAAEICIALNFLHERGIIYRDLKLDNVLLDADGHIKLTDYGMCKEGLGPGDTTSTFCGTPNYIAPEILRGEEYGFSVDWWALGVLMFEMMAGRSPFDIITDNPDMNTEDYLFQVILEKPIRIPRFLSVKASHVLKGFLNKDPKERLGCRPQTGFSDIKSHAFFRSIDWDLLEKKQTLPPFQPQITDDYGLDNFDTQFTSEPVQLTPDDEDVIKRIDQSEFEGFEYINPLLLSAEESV
# Experiment: Inhibition of Protein kinase C isolated from rat brain
row,SMILES,IC50 [µM]
1,CCCCCCCCCCC#Cc1cccc([C@@H](O)[C@@H](N)CO)c1,22.2
2,"CCCCCCCCCCCCC/C=C/[C@@H](O)[C@@H](N)CO [(E,2S,3R)-2-azanyloctadec-4-ene-1,3-diol]",23.4
